Where two headings read alike, the source gives them in different places.
Tests used:
[1] = target: T1, human 5-HT6 (h5-HT6) receptors (Homo sapiens, UniProt P50406); assay: Competition radioligand binding, h5-HT6
T1 construct: purchased Receptor Biology, Inc. (Beltsville, Md.); host or cells: HEK-293 cells

[2] = target: T2, human 5-HT7B (h5-HT7b) receptors (Homo sapiens, UniProt P34969); assay: Competition radioligand binding, h5-HT7b
T2 construct: expressed in transfected cells
Description: The compounds of the invention interact with 5-HT receptors and show selectivity for 5-HT receptors. The 5-HT receptor binding properties of the compounds are identified by competitive radioligand binding assays wherein membranes prepared from transfected cells expressing the 5-HT receptor subtype of interest. “Binding constants” refers herein to Ki values measured by inhibition of the binding of radiolabelled ligands that are selective for the 5-HT receptor type being studied. For 5-HT7 receptors, Ki values are determined by measuring the inhibition of 5-carboxamidotryptamine (5-CT) binding, wherein 5-HT7 receptors were incubated with the radiolabelled high affinity ligand, 5-carboxamidotryptamine ([^3H]5-CT), in the presence and absence of the compounds of the invention, at varying concentrations. The compounds of the invention have high binding affinity for serotonin receptors as measured by dissociation constant Ki. […] “Selectivity” for receptor type, in the context of this invention, refers to the ratio of binding constants for the two receptor types being compared. […] The compounds of the present invention preferably show selectivity for 5-HT7 receptors over other serotonin receptor subtypes of greater than about 100. The compounds of the present invention also preferably show selectivity for 5-HT7 receptors over other receptor types, such as dopamine D2, of greater than about 100.
(§1) Cells and Membrane Preparation: HEK 293 cells stably expressing human 5-HT7B (h5-HT7b) receptors were grown in Dulbecco's Modified Eagle's Medium (DMEM; Gibco) without sodium pyruvate and containing 4.5 g/L glucose, L-glutamine/penicillin-streptomycin (Gemini), 10% fetal bovine serum and 250 mg/l of the antibiotic, G418 (Geneticin) as previously described (Jasper, J. R., Kosaka, A., To, Z. P., Chang, D. J. and Eglen, R. M. (1997) Cloning, expression and pharmacology of a truncated splice variant of the human 5-ht7 receptor (h5-ht7b). Br. J. Pharmacol. 122(1):126-132.). Cell pellets were homogenized in approximately 50 mL of homogenization buffer (buffer A) containing: 50 mM Tris (pH 7.4), 2 mM EGTA, 0.32 M sucrose, 10 μM PMSF, 1 μg/mL leupeptin, 5 μg/mL Pepstatin A, and 5 μg/mL aprotinin using an UltraTurax homogenizer (Tekmar Company, Cincinnati, Ohio) at 80% maximum setting three times for 10 sec. Cell pellets were centrifuged at 4° C. at 1,500×g for 10 min in a Beckman GS-6R centrifuge. Pellets were resuspended in buffer A, homogenized and centrifuged as described above. Pooled supernatants were transferred to centrifuge bottles and centrifuged at 4° C. at 20,000×g for 30 min in a Beckman J2-HS centrifuge. Cell pellets were resuspended in buffer A and were centrifuged at 4° C. at 20,000×g for 30 min. Cell pellets were resuspended in buffer A and stored at −70° C. in aliquots of 2.5 mg/mL total membrane protein. Total membrane protein was assessed utilizing a BCA kit (Pierce; Rockford, Ill.). Membranes containing human 5-HT1a or 5HT2a receptors expressed in CHO K1 cells were prepared as described above.
Radioligand Binding Assays: For 5-HT7 saturation binding experiments, HEK-293 cell membranes expressing h5-HT7 receptors (5-10 μg membrane protein/well) were incubated in duplicate with [^3H]5-CT (approximately 0.2 nM) in binding assay buffer containing: 50 mM HEPES (pH 7.4), 0.5 mM EDTA, 10 mM MgCl2, 10 μM pargyline to inhibit monoamine oxidase activity, and 0.1% sodium ascorbate, in a final volume of 200 μL in 96-well polypropylene plates for 2 hours at 37° C. Nonspecific binding was determined by incubating membranes with 1 μM 5-HT. All radioligand binding assays were stopped by rapid filtration onto 96-well GF/C filter plates (Packard) soaked in 0.1% polyethylenimine. Filters were washed three times with ice-cold phosphate-buffered saline (PBS) wash buffer containing 50 mM NaPO4 (pH 7.4), 0.9% NaCl, 2 mM MgCl2 and 0.02% NaN3. The filters were then counted using liquid scintillation in a Packard Topcount scintillation counter. […]

[3] = target: T3, human 5-HT1a receptors (Homo sapiens, UniProt P08908); assay: Competition radioligand binding, h5-HT1a
T3 construct: expressed in transfected cells; host or cells: CHO K1 cells
T3 sequence (P08908 1-422): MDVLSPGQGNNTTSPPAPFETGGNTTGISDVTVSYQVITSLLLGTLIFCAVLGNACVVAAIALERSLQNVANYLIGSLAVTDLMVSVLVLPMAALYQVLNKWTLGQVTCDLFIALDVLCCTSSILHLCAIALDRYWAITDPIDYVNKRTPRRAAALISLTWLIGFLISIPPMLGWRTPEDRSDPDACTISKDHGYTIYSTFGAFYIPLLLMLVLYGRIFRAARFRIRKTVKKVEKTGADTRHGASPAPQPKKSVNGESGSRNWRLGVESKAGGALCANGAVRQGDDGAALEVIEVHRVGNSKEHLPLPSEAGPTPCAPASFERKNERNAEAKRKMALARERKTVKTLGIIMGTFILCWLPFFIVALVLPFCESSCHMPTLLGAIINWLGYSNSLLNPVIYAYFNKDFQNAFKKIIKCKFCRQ
Method: as §1
(§2) Radioligand Binding Assays: For 5-HT7 saturation binding experiments, HEK-293 cell membranes expressing h5-HT7 receptors (5-10 μg membrane protein/well) were incubated in duplicate with [^3H]5-CT (approximately 0.2 nM) in binding assay buffer containing: 50 mM HEPES (pH 7.4), 0.5 mM EDTA, 10 mM MgCl2, 10 μM pargyline to inhibit monoamine oxidase activity, and 0.1% sodium ascorbate, in a final volume of 200 μL in 96-well polypropylene plates for 2 hours at 37° C. Nonspecific binding was determined by incubating membranes with 1 μM 5-HT. All radioligand binding assays were stopped by rapid filtration onto 96-well GF/C filter plates (Packard) soaked in 0.1% polyethylenimine. Filters were washed three times with ice-cold phosphate-buffered saline (PBS) wash buffer containing 50 mM NaPO4 (pH 7.4), 0.9% NaCl, 2 mM MgCl2 and 0.02% NaN3. The filters were then counted using liquid scintillation in a Packard Topcount scintillation counter.
(§3) Data Analysis: Radioligand binding experiments were analyzed with Prism™ (Graphpad, San Diego, Calif.), a computer graphics and statistics program. IC50 values and Hill slopes for compounds were generated by nonlinear regression using Prism™. Values for Ki calculated from IC50 values by the Cheng and Prussoff equation (Cheng, Y. and Prusoff, W. H., (1973), “Relationship between the inhibition constant (Ki) and the concentration of inhibitor which causes 50 per cent inhibition (I50) of an enzymatic reaction.” Biochemical Pharmacol. 22:3099-3108).

[4] = target: T4, human D2S dopamine (hD2S-DA) receptors (Homo sapiens, UniProt P14416); assay: Competition radioligand binding, hD2S dopamine
T4 construct: purchased Receptor Biology, Inc. (Beltsville, Md.); host or cells: A9 L cells

[5] = target: T5, human 5HT2a receptors (Homo sapiens, UniProt P28223); assay: Competition radioligand binding, 5-HT2A
T5 construct: expressed in transfected cells; host or cells: CHO K1 cells
Method: as §1, §2, §3

[6] = [3H]LSD, membranes of HEK-293 cells, read-out: Ki 5-HT6
[7] = [3H]5-CT, membranes of HEK 293 cells, read-out: Ki 5-HT7
[8] = [3H]5-CT, membranes of CHO K1 cells, read-out: Ki 5-HT1A
[9] = [3H]Spiperone, membranes of A9 L cells, read-out: Ki D2
[10] = [3H]Ketanserin, membranes of CHO K1 cells, read-out: Ki 5-HT2A

T1 sequence (P50406 whole entry): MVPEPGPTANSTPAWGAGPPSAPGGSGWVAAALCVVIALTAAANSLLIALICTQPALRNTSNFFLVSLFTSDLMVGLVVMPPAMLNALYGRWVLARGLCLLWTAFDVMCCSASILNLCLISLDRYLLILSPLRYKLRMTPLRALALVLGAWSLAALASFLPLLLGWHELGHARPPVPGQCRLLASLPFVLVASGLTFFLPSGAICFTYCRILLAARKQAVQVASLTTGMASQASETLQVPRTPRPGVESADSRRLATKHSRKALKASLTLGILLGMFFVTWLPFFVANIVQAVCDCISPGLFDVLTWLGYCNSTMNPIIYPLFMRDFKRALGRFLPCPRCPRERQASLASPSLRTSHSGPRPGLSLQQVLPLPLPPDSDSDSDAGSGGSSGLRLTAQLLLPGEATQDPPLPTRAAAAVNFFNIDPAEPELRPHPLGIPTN
T2 sequence (P34969 1-432 limits assumed): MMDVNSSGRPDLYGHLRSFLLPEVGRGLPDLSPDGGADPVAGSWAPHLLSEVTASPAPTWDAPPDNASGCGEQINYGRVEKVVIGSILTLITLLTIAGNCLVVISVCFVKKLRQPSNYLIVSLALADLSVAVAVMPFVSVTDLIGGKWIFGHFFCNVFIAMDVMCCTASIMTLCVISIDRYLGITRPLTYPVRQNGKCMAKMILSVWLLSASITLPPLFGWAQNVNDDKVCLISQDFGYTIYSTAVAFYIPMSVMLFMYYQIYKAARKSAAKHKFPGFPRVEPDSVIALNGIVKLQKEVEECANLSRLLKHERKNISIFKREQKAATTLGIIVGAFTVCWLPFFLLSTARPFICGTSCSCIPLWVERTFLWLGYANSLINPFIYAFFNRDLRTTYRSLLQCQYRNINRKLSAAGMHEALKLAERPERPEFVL
T4 sequence (P14416 1-414 isoform P14416-2): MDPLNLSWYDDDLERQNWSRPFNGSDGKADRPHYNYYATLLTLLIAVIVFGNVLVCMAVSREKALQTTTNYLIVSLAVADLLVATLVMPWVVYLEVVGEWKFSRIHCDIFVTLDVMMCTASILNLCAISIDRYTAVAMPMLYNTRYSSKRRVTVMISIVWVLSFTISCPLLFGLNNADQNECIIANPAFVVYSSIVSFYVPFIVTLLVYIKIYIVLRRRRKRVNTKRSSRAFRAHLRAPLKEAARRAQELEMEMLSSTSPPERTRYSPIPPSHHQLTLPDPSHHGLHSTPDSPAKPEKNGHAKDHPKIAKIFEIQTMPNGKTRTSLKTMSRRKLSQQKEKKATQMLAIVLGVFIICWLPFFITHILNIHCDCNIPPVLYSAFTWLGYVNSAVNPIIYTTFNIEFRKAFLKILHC
T5 sequence (P28223 whole entry): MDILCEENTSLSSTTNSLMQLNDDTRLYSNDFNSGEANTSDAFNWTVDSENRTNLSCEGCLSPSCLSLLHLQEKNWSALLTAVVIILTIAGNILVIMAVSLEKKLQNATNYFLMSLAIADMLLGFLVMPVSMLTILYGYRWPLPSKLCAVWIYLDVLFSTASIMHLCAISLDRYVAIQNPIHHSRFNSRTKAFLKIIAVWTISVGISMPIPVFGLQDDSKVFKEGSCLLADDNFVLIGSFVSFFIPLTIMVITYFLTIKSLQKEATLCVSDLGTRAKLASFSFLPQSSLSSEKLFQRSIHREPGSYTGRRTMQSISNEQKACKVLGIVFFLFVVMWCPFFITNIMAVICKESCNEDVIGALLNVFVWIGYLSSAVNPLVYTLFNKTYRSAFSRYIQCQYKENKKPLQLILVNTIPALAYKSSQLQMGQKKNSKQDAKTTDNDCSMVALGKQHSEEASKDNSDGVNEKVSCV

| Compound | Ki [1, 6] [nM] | Ki [2, 7] [nM] | Ki [3, 8] [nM] | Ki [4, 9] [nM] | Ki [5, 10] [nM] | Ki [1] [nM] | Ki [2] [nM] | Ki [3] [nM] | Ki [4] [nM] | Ki [5] [nM] |
| --- | --- | --- | --- | --- | --- | --- | --- | --- | --- | --- |
| COc1ccccc1CN1CCN(C(=O)NC(=N)NCc2cccc3ccccc23)CC1 [Example 5, N-{[4-(2-Methoxybenzyl)-1-piperazinyl]carbonyl}-N′-(1-naphthylmethyl)guanidine] | 1960 | 26 | 2390 | 2010 | 46 | – | – | – | – | – |
| N=C(NCc1cccc2ccccc12)NC(=O)NC1CCN(Cc2ccccc2)CC1 [Example 6, 1-Benzyl-4-{[({imino[(1-naphthylmethyl)amino]methyl}amino)carbonyl]amino}piperidine] | 8630 | 68 | 770 | 1050 | 13 | – | – | – | – | – |
| N=C(NCc1cccc2ccccc12)NC(=O)N1CCN(Cc2ccccc2)CC1 [Example 7, N-[(4-Benzyl-1-piperazinyl)carbonyl]-N′-(1-naphthylmethyl)guanidine] | > 10000 | 1.4 | 1690 | 770 | 43 | – | – | – | – | – |
| N=C(NCc1cccc2ccccc12)NC(=O)N1CCC(C(N)=O)CC1 [Example 8, 1-[({imino[(1-naphthylmethyl)amino]methyl}amino)carbonyl]-4-piperidinecarboxamide] | > 10000 | 12 | > 4000 | > 2500 | 40 | – | – | – | – | – |
| COc1ccccc1N1CCN(C(=O)NC(=N)NCc2cccc3ccccc23)CC1 [Example 21, N-{[4-(2-Methoxyphenyl)-1-piperazinyl]carbonyl}-N′-(1-naphthylmethyl)guanidine] | > 10000 | 6 | 520 | 900 | 150 | – | – | – | – | – |
| N=C(NCc1cccc2ccccc12)NC(=O)N[C@H]1C[C@@H]2CC[C@H]1C2 [Example 23, 1-({[({[(1S,2S,4R)Bicyclo[2.2.1]hept-2-ylamino]carbonyl}amino) (imino)methyl]amino}methyl)naphthalene] | 1930 | 9.7 | 220 | 280 | 4 | – | – | – | – | – |
| N=C(NCc1cccc2ccccc12)NC(=O)N1CCN(C/C=C/c2ccccc2)CC1 [Example 24, N-(1-Naphthylmethyl)-N′-({4-[(E)-3-phenyl-2-propenyl]-1-piperazinyl}carbonyl)guanidine] | 1910 | 3.2 | 2620 | 820 | 78 | – | – | – | – | – |
| N=C(NCc1cccc2ccccc12)NC(=O)N1CCC(Nc2ccccc2)CC1 [Example 25, N-[(4-Anilino-1-piperidinyl)carbonyl]-N-(1-naphthylmethyl)guanidine] | – | – | – | – | – | > 10000 | 7.4 | 2590 | 1470 | 120 |
| N=C(NCc1cccc2ccccc12)NC(=O)N1CCC(Cc2ccccc2)CC1 [Example 29, N-[(4-Benzyl-1-piperidinyl)carbonyl]-N′-(1-naphthylmethyl)guanidine] | > 10000 | 16 | 2690 | > 2500 | 170 | – | – | – | – | – |
| N=C(NCc1cccc2ccccc12)NC(=O)N[C@@H](Cc1ccc(O)cc1)C(N)=O [Example 35] | 460 | 5.1 | > 4000 | 630 | 0.92 | – | – | – | – | – |
| N=C(NCc1cccc2ccccc12)NC(=O)N1CCC2(CC1)C(=O)NCN2c1ccccc1 [Example 36, N-(1-Naphthylmethyl)-N′-[(4-oxo-1-phenyl-1,3,8-triazaspiro[4.5]dec-8yl)carbonyl]guanidine] | 740 | 11 | 580 | 340 | 33 | – | – | – | – | – |
| N=C(NCc1cccc2ccccc12)NC(=O)NC1CCCc2ccccc21 (stereo not drawn) [Example 40, 1-{[({Imino[(1-naphthylmethyl)amino]methyl}amino)carbonyl]amino}-1,2,3,4-tetrahydronaphthalene] | 590 | 24 | 540 | 1700 | 4.1 | – | – | – | – | – |
| N=C(NCc1cccc2ccccc12)NC(=O)NC[C@@H]1CCCC[C@@H]1O [Example 41, 1-({[([({[(1S,2S)2-Hydroxycyclohexyl]methyl}amino)carbonyl]amino}(imino)methyl]amino}methyl)naphthalene] | 340 | 8.9 | 54 | 1070 | 2 | – | – | – | – | – |
| N=C(NCc1cccc2ccccc12)NC(=O)NC1CCc2ccccc21 (stereo not drawn) [Example 43, 1-({[{[(2,3-Dihydro-1H-inden-1-ylamino)carbonyl]amino}(imino)methyl]amino}methyl)naphthalene] | 900 | 22 | 630 | 2190 | 4.8 | – | – | – | – | – |
| COc1ccccc1CN1CCC(CNC(=O)NC(=N)NCc2cccc3ccccc23)CC1 [Example 45, 4-({[({Imino[(1-naphthylmethyl)amino]methyl}amino)carbonyl]amino}methyl)-1-(2-methoxybenzyl)piperidine] | 1550 | 21 | 600 | 500 | 3.9 | – | – | – | – | – |

— US20040044037A1, “Amidino-urea serotonin receptor ligands and compositions, their pharmaceutical uses, and methods for their snythesis” (priority 2003, published 2004)
